# Assay results as given in ChEMBL document CHEMBL1201862, “PubChem BioAssay data set” (2004).
#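 A five-concentration, 48-hour dose response in 96-well plates underlies each endpoint, interpolated linearly between surrounding concentrations. GI50 marks 50% less growth.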 The source made the active and inactive calls. Cut-off read from the data, not from the text of the source: active = GI50 up to about 1.1 µM and inactive = higher.
# How the values were obtained:
# Test in all cases: NCI anticancer screen, dose series, 48 h
# LOX IMVI = test system: LOX IMVI
# U-251 = test system: U-251
# SK-MEL-5 = test system: SK-MEL-5
# RXF 393 = test system: RXF 393
# ACHN = test system: ACHN
# Malme-3M = test system: Malme-3M
# 786-0 = test system: 786-0
# SW-620 = test system: SW-620
# EKVX = test system: EKVX
# HCT-15 = test system: HCT-15
# NCI-H23 = test system: NCI-H23
# CCRF-CEM = test system: CCRF-CEM
# SNB-19 = test system: SNB-19
# NCI-H460 = test system: NCI-H460
# OVCAR-3 = test system: OVCAR-3
# HL-60 = test system: HL-60
# HCC 2998 = test system: HCC 2998
# OVCAR-4 = test system: OVCAR-4
# SR = test system: SR
SMILES,GI50 (LOX IMVI),GI50 (U-251),GI50 (SK-MEL-5),GI50 (RXF 393),GI50 (ACHN),GI50 (Malme-3M),GI50 (786-0),GI50 (SW-620),GI50 (EKVX),GI50 (HCT-15),GI50 (NCI-H23),GI50 (CCRF-CEM),GI50 (SNB-19),GI50 (NCI-H460),GI50 (OVCAR-3),GI50 (HL-60),GI50 (HCC 2998),GI50 (OVCAR-4),GI50 (SR)
N/N=C1\c2ccccc2C2/C(=N\N)c3ccccc3C12 (configuration not stated),> 100 µM (inactive),> 100 µM (inactive),> 100 µM (inactive),> 100 µM (inactive),> 100 µM (inactive),> 100 µM (inactive),> 100 µM (inactive),> 100 µM (inactive),> 100 µM (inactive),> 100 µM,> 100 µM (inactive),> 100 µM (inactive),> 100 µM (inactive),> 100 µM (inactive),> 100 µM (inactive),> 100 µM (inactive),> 100 µM (inactive),> 100 µM (inactive),–
O=C1c2c(c3c4ccccc4[nH]c3c3[nH]c4ccccc4c23)C(=O)N1Cc1ccccc1,2.44 µM (inactive),2.33 µM (inactive),1.85 µM (inactive),1.51 µM (inactive),2.87 µM (inactive),3.54 µM (inactive),3.13 µM (inactive),3.7 µM (inactive),5.93 µM (inactive),2.06 µM,2.08 µM (inactive),2.96 µM (inactive),2.8 µM (inactive),3.3 µM (inactive),2.81 µM (inactive),–,4.27 µM (inactive),3.06 µM (inactive),–
N#CCCN(CCC#N)c1ccc(/C=C2\N=C(COc3ccc(Cl)cc3Cl)OC2=O)cc1,> 100 µM (inactive),> 100 µM (inactive),> 100 µM (inactive),–,–,> 100 µM (inactive),> 100 µM (inactive),> 100 µM (inactive),> 100 µM (inactive),> 100 µM,> 100 µM (inactive),> 100 µM (inactive),> 100 µM (inactive),> 100 µM (inactive),> 100 µM (inactive),> 100 µM (inactive),> 100 µM (inactive),> 100 µM (inactive),–
CCOc1ccccc1/N=N/c1ccc2oc(=O)c(C(=O)Nc3cccc(C)c3)cc2c1,14.7 µM (inactive),25.6 µM (inactive),15.1 µM (inactive),–,–,29.9 µM (inactive),34 µM (inactive),31.3 µM (inactive),25.7 µM (inactive),25.4 µM,21.4 µM (inactive),18.7 µM (inactive),20.3 µM (inactive),–,20 µM (inactive),10.2 µM (inactive),31.3 µM (inactive),28.6 µM (inactive),–
C[C@]12CCC(=O)C[C@H]1CCC(O)[C@@H]2Br (some centres not stated),> 100 µM (inactive),> 100 µM (inactive),> 100 µM (inactive),–,> 100 µM (inactive),> 100 µM (inactive),> 100 µM (inactive),> 100 µM (inactive),–,> 100 µM,> 100 µM (inactive),> 100 µM (inactive),> 100 µM (inactive),> 100 µM (inactive),> 100 µM (inactive),> 100 µM (inactive),> 100 µM (inactive),> 100 µM (inactive),> 100 µM (inactive)
CC(C)(C)c1ccccc1NS(=O)(=O)c1ccccc1,–,> 100 µM (inactive),42.4 µM (inactive),76.7 µM (inactive),> 100 µM (inactive),> 100 µM (inactive),> 100 µM (inactive),> 100 µM (inactive),> 100 µM (inactive),> 100 µM,> 100 µM (inactive),62.1 µM (inactive),–,92 µM (inactive),71.4 µM (inactive),36.9 µM (inactive),> 100 µM (inactive),62.4 µM (inactive),–
CC1(C)C2CCC13C(=O)C1OC3(C2)C2C(=O)N(c3ccccc3)C(=O)C12 (configuration not stated),> 100 µM (inactive),> 100 µM (inactive),> 100 µM (inactive),> 100 µM (inactive),> 100 µM (inactive),> 100 µM (inactive),> 100 µM (inactive),> 100 µM (inactive),> 100 µM (inactive),> 100 µM,38.1 µM (inactive),> 100 µM (inactive),> 100 µM (inactive),> 100 µM (inactive),> 100 µM (inactive),> 100 µM (inactive),> 100 µM (inactive),> 100 µM (inactive),–
N=C(c1ccccc1)N1CCCCC1,> 100 µM (inactive),> 100 µM (inactive),–,> 100 µM (inactive),–,49 µM (inactive),> 100 µM (inactive),> 100 µM (inactive),> 100 µM (inactive),–,> 100 µM (inactive),–,> 100 µM (inactive),> 100 µM (inactive),–,> 100 µM (inactive),> 100 µM (inactive),> 100 µM (inactive),> 100 µM (inactive)
c1ccc2c(c1)SCCCS2,> 100 µM (inactive),> 100 µM (inactive),> 100 µM (inactive),–,–,–,> 100 µM (inactive),> 100 µM (inactive),> 100 µM (inactive),> 100 µM,> 100 µM (inactive),> 100 µM (inactive),> 100 µM (inactive),> 100 µM (inactive),> 100 µM (inactive),> 100 µM (inactive),> 100 µM (inactive),> 100 µM (inactive),> 100 µM (inactive)
